Laboratory results from patent US5985937A, “Use of 2,4-distributed phenol derivatives as 5-lipoxygenase inhibitors” (priority 1994, dated 1999).

What was measured:
tendonitis = experiment: treatment of horses with tendonitis; format: in vivo, horse; conditions: 15 mg/day intraarticular infiltration
Description: Twenty five horses suffering from tendonitis, with claudication of the corresponding tendon, were treated with 15 mg/day via intraarticular infiltration of Bobel-24.

seborrheic dermatitis = experiment: treatment of dogs with seborrheic dermatitis; format: in vivo, dog; conditions: 15 dogs (Cockers), phase I or II, 1 mg/kg.day p.o. plus 2% shampoo
Description: A total of 15 dogs (Cockers) suffering from seborrheic dermatitis in phase I or II were treated with doses of 1 mg/kg.day p.o. of Bobel-24, and were simultaneously washed with a shampoo containing 2% of the same product.

[1] = test system: lactatedehydrogenase (LDH); experiment: liberation of lactatedehydrogenase (LDH) into the medium; conditions: check for cellular lysis
Source text: In order to show the 5-LO inhibiting activity of the products of the present invention, a specific test based on human polymorphonuclear leukocytes is chosen.

cyclooxygenase = conditions: in words; cited from earlier work
[2] = acute toxicity in Sprague-Dawley rats; conditions: rat, in vivo, po
[3] = solubility in aqueous medium; format: physicochemical; conditions: in words
Description: Due to the insolubility of Bobel-24 in aqueous medium, it was previously dissolved in a 50% solution of lysine. An anionic sulfonated detergent was used as foaming agent, containing 10-15% tegobetaine, 20-30% texapone N-40, and water. A 2% shampoo was prepared with the following composition: 2 g Bobel-24, 12 ml of 50% aqueous solution of lysine, 48 ml of water, 40 ml of the anionic sulfonated detergent.

bacterial strains = experiment: mutagenic activity in four bacterial strains; design: species or system bacteria
bursitis = experiment: treatment of horses with bursitis; format: in vivo, horse; conditions: seven young horses, 15 mg/day intraarticular infiltration
herpes simplex = experiment: in vivo activity in patients with herpes simplex; design: species or system human (patients); conditions: 15 mg/day intramuscularly, a month
Source text: The 2,4-disubstituted phenol derivatives of the present invention are anti-herpetic agents in vivo, since they eliminate the symptoms of patients suffering from different types of herpes simplex (genital herpes, herpes of mouth and lips, recurrent herpes), and of patients suffering from herpes zoster. There is no relapse after leaving the treatment. The products are active both intramuscularly and topically, the first via being preferred.
A total of 25 patients with symptoms of different herpes simplex (genital, buccal or reincident) were treated with 15 mg/day of Bobel-24, intramuscularly, during a month, with the following results: with the ten patients of genital herpes simplex, the results was excellent in 7 cases, good in 2 and regular in 1; of the twelve with buccal herpes simplex it was excellent in 9 cases, good in 2 and regular in 1; of the 3 with reincident herpes it was excellent in 2 of the cases and good in 1. […] The case of genital herpes which resulted "regular" was an obese and diabetic […], and although there was an improvement there was also reincidency. Independently an test for antiviral activity in vitro resulted negative.

[4] = test system: rheumatoid arthritis, hip dysplasia, equine cauda, deforming spondolitis or coxarthrosis; experiment: treatment of dogs with articular or musculoskeletal diseases; format: in vivo, dog; conditions: twenty dogs, oral 1-3 mg/kg.day
feline asthma = experiment: treatment of cats with feline asthma; format: in vivo, cat; conditions: 5 mg/day, cream applied to the leg and licked
canine arthritis = experiment: clinical trial on canine arthritis; format: in vivo, dog; design: key: +++: very good response, total recovery; ++: good response, functionability recovery; +: moderate response, improvement; -: negative response or no apparent improvement; conditions: 2 mg/kg day orally, 15 days
Description: After the diagnosis, each animal was treated with Bobel capsules during 45 days, with a follow up every 15 days. Blood, synovial liquid and urine samples were taken at the beginning and at the end of the treatment in order to perform the following tests: Synovial liquid analysis (cytology, cytokines 1,6,8 and TNF); LTB4; LTC4; PGE2; hematic count and leukocyte content; standard serum biochemistry; urine sediment; Rose-Wealer test; and radiology control. The methodology for clinical validation involved applying evaluating uniform parameters and classifying the results according to the following notations: (+++)=very good response, total recovery; (++)=good response, functionability recovery; (+)=moderate response, improvement; (-)=negative response or no apparent improvement.
After the diagnosis each animal was treated with capsules of Bobel-24 during 15 days. Blood, synovial liquid and urine samples were taken at the beginning and at the end of the treatment in order to perform the same tests as in example 13, using the same notation for the clinical evolution.

Oc1c(I)cc(I)cc1I [Bobel-24, 2,4,6-triiodophenol]
outcome in the rest of the cases (tendonitis; horses, 15 days): the claudication disappeared within the same period of time, but an inflammatory ring persisted around the tendon | cases in which the process was totally reduced in 15 days (tendonitis; of twenty five horses): 17 cases | disappearance of the dermatitis (seborrheic dermatitis): practically a total disappearance of the dermatitis | LDH liberation into the medium [1]: cannot be attributed to cellular lysis | cyclooxygenase inhibiting activity (cyclooxygenase): some cyclooxygenase inhibiting activity | LD50 [2]: 1500 mg/kg | solubility in aqueous medium [3]: insolubility | mutagenic activity (bacterial strains): No mutagenic activity | reduction in inflammation (bursitis): a reduction in the inflammation was obtained | disappearance of the symptoms, herpes simplex overall (herpes simplex; 25 patients): clear and generalized disappearance of the symptoms | cases with excellent result, reincident herpes (herpes simplex; of 3 patients): 2 cases | cases with good result, reincident herpes (herpes simplex; of 3 patients): 1 cases | cases with excellent result, genital herpes simplex (herpes simplex; of ten patients): 7 cases | cases with good result, genital herpes simplex (herpes simplex; of ten patients): 2 cases | cases with regular result, genital herpes simplex (herpes simplex; of ten patients, obese and diabetic patient, reincidency): 1 cases | cases with excellent result, buccal herpes simplex (herpes simplex; of twelve patients): 9 cases | cases with good result, buccal herpes simplex (herpes simplex; of twelve patients): 2 cases | cases with regular result, buccal herpes simplex (herpes simplex; of twelve patients): 1 cases | response [4]: very good response within 1 or 2 weeks | results in feline asthma (feline asthma): satisfactory results in many cases | Evolution, knee instability (canine arthritis; German shepherd 2 years): ++ | Evolution, osteochondritis (canine arthritis; Mongrel 1 year): +++ | Evolution, arthritis (canine arthritis; b340 Mongrel 8, b342 German shepherd 6, b343 Rottwailer 1, b347 Mongrel 7 years): +++
